Reference: paper PMC4013357 (The Journal of Veterinary Medical Science, 2013)

Molecular target: T1, rBboDHODH (Babesia bovis dihydroorotate dehydrogenase) (Babesia bovis, UniProt A7AUQ8)
T1 sequence (A7AUQ8 1-415): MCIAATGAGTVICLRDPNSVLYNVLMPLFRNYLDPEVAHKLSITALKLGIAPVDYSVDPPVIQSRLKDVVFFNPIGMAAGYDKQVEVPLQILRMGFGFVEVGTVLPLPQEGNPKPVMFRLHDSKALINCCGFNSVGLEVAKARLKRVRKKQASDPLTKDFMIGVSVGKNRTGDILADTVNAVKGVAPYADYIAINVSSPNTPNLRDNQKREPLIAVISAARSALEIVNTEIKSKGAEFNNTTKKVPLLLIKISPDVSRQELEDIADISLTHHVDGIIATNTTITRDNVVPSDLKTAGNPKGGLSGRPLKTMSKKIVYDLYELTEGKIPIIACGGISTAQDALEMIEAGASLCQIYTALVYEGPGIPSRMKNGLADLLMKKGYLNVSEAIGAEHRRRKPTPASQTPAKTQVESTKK
Experiment: biochemical
Details: read-out: Relative activity (%)

O=C1C(O)=C([C@H]2CC[C@H](c3ccc(Cl)cc3)CC2)C(=O)c2ccccc21 [ATV, atovaquone]
activity at 1 µM: 19.1%

Cc1oncc1C(=O)Nc1ccc(C(F)(F)F)cc1 [LFN, leflunomide]
activity at 1000 µM: 51.6%
